# Measurements reported in PMC8308784, “Novel Purine Chemotypes with Activity against Plasmodium falciparum and Trypanosoma cruzi” (Pharmaceuticals, 2021).
# Where two headings read alike, the source gives them in different places.
# Key:
# Format in all cases: cell-based
# [1] = test system: P. falciparum 3D7; experiment: P. falciparum primary screening at three fixed concentrations; conditions: average of at least three experiments; for activity at 1 µM / activity at 10 µM / activity at 100 µM: Plasmodium falciparum, read-out: Primary screening, parasite growth relative to the negative control; for activity at 1 µM: 3D7, compound at 1 µM; for activity at 10 µM: 3D7, compound at 10 µM; for activity at 100 µM: 3D7, compound at 100 µM
# [2] = test system: T. cruzi Tulahuen strain expressing β-galactosidase; experiment: T. cruzi primary screening at three fixed concentrations
# Description: T. cruzi parasites from the Tulahuen strain (discrete typing unit (DTU) VI) expressing β-galactosidase were maintained in culture by the infection of LLC-MK2 cells in DMEM supplemented with 2% FBS and 1% penicillin–streptomycin–glutamine (PSG), as described in [52]. When free-swimming trypomastigotes were released to the culture medium, they were centrifuged for 7 min at 2500 rpm and allowed to swim out of the pellet. Trypomastigotes were used to maintain the parasite cycle, or for the performance of the antiparasitic assays.
# […] Conditions were tested in triplicate for every concentration. Z-values varied between 0.81 and 0.92 in the different plates analyzed. Selected compounds (34.6% potential hit rate) were further analyzed via standard growth inhibition assays. The Z-values of dose–response assays correlated with those previously reported. For both assays, Vero cells and trypomastigotes from the Tulahuen T. cruzi strain expressing β-galactosidase were harvested, centrifuged, and resuspended in DMEM without phenol red supplemented with 1% PSG, 2% FBS, 1 mM sodium pyruvate, and 25 mM HEPES. Vero cells and trypomastigotes were counted, diluted at a concentration of 1 × 10^6 cells/mL each, and mixed 1:1 (v/v). Then, 100 μL of that mixture was added per well to the plates already containing the compounds. Each well contained 50,000 host cells and 50,000 parasites, i.e., multiplicity of infection (MOI) = 1. BNZ was used as control of maximal drug growth inhibition in each round, whereas each plate contained its own negative control (maximum parasite growth; Vero cells plus parasites without drugs) and positive control (minimum parasite growth; trypomastigote forms alone marking an enzymatic zero time or baseline galactosidase activity). After four days at 37 °C, 50 µL of a PBS solution containing 0.25% NP40 and 500 µM chlorophenol red-β-D-galactopyranoside (CPRG) substrate were added per well [32]. Plates were incubated at 37 °C for 4 h, and their absorbance read out at 590 nm using an Epoch Gene5 spectrophotometer.
# (§1) Absorbance values derived from the anti-T. cruzi assays and fluorescence values from the anti-P. falciparum and cell toxicity assays were normalized to the controls. In the primary screening at three fixed doses, the compounds’ inhibitory activity was expressed as a percentage of the negative control (100% parasitic growth). In dose–response assays, the compounds’ IC50 and TC50 values were determined with GraphPad Prism 7 software (version 7.00, 2016), using a non-linear regression analysis model defined by the following equation: Y=100 ÷(1+10^((LogIC50−X)×HillSlope))
# [3] = test system: T. cruzi intracellular amastigotes; experiment: Antiamastigote growth inhibition assay; conditions: intracellular amastigotes in Vero cells, mean (SD), read-out: T. cruzi IC50 b (antiamastigote assay)
# Description: Vero cells were seeded in T-175 flasks (5 × 10^6 cells per flask) in DMEM supplemented with 1% penicillin–streptomycin and 10% FBS, and cultured for 24 h. Then, cells were washed once with PBS, and free-swimming trypomastigotes (1 × 10^7 trypomastigotes per flask; MOI = 1) in assay medium were added and allowed 18 h to infect. After that, infected cell monolayers were washed with PBS and detached. Cells were counted and diluted to a concentration of 5 × 10^5 cells per mL, before adding 100 µL per well to test plates already containing the drugs dispensed as described above. In all cases, we included BNZ as control drug, and each plate contained its own negative (Vero cells and parasites) and positive (Vero cells) controls.
# as §1
# [4] = test system: T. cruzi Tulahuen strain expressing β-galactosidase; experiment: anti-T. cruzi dose-response growth inhibition assay (Vero cells plus trypomastigotes, CPRG readout); conditions: Vero cells plus trypomastigotes, MOI 1, four days, mean (SD), read-out: T. cruzi IC50 a (anti-T. cruzi assay)
# [5] = compound at 10 µM, average of at least three independent experiments
# [6] = Trypanosoma cruzi, TULAHUEN, 96 h
Structure (SMILES),"Primary screening, parasite growth relative to the negative control ([1]; compound at 1 µM) [%]","Primary screening, parasite growth relative to the negative control ([1]; compound at 10 µM) [%]","Primary screening, parasite growth relative to the negative control ([1]; compound at 100 µM) [%]","Primary screening, growth inhibition values at 10 µM [2, 5]",IC50 [3] [µM],IC50 [4] [µM],activity at 1 µM [1] [%],activity at 10 µM [1] [%],activity at 100 µM [1] [%],IC50 ([3]; Trypanosoma cruzi) [µM],"IC50 [4, 6] [µM]","activity at 100 µM ([2]; Trypanosoma cruzi, TULAHUEN, read-out: Primary screening, growth inhibition values at 100 µM) [%]","activity at 1 µM ([2]; Trypanosoma cruzi, TULAHUEN, compound at 1 µM, average of at least three independent experiments, read-out: Primary screening, growth inhibition values at 1 µM) [%]","activity at 10 µM ([2]; Trypanosoma cruzi, TULAHUEN, compound at 10 µM, average of at least three independent experiments, read-out: Primary screening, growth inhibition values at 10 µM) [%]"
c1ccc(CCn2c(-c3ccccc3)nc3c(OCc4ccccc4)ncnc32)cc1 [Compound 6g],100.79,94.94,24.45,87.76,19.6,3.97,–,–,–,–,–,–,–,–
CC(C)(C)n1c(-c2ccccc2)nc2c(OCc3ccccc3)ncnc21 [Compound 6D],–,–,–,84.14,–,–,117,114,13.2,3.78,5.56,–,–,–
COC(=O)c1ccccc1-n1cc(COc2ncnc3c2nc(-c2ccccc2)n3N(C)C)nn1 [Compound 34],–,–,–,–,–,–,95.6,85,43.2,4.24,4.12,13.9,68,66.9
